From patent US11129899B1, “Methotrexate derivatives and uses thereof” (S.S. Manufacturing Co., Ltd, priority 2021, dated 2021)

Assays:
Lipid solubility in oil = format: physicochemical
Description: Embodied compound or Methrotrexate in DMSO (3 μg/μl) were dissolved in olive oil, canola oil and sunflower oil(Sigma-Aldrich (St. Louis, Mo., USA)) at 40° C. The suspended were vortexed and centrifuged at 3000 RPM, 10 mins periodically. Oil solvent volume was stepwise increased till completely soluble was observed and the soluble concentration were determined (Table 2). The solutions were left at 24° C. overnight and were centrifuged at 5000 RPM for 20 mins. Ten microliter of embodied compound in oils were added to 100 μl deionized (DI) water. The suspensions were vigorously vortex and left at room temperature.

MCF-7 cells = assay: cells; format: cell-based; details: Homo sapiens, MCF7, 24 h, read-out: IC50 (cytotoxicity)
Description: The human breast cancer cell line, MCF-7, was obtained from American Type Cell Collection (ATCC) (Rockville, Mo., U.S.A.). The cells were cultured to 70-80% confluence in Dulbecco's modified Eagle medium (DMEM) (Gibco, Grand Island, N.Y., U.S.A.) with 10% fetal bovine serum (FBS) (Gibco) at 37° C. and 5% CO2. MCF-7 cells were plated overnight in a 96-well plate (4,000 cells per well). […] Next, 10 μl/well of WST-1/ECS solution from the Quick Cell Proliferation Colorimetric Assay Kit (BioVision, Inc., Milptas, Calif., U.S.A.) was added, and the solution was incubated for 2 hours at 37° C. and 5% CO2. Absorbance was measured at 480 nm with the Biochrom Anthos 2010 microplate reader (Biochrom Ltd., Cambourne, Cambridge, UK). The half maximal inhibitory concentrations (IC50) were calculated from log-linear regression from the absorbance optical density (OD).

[1] = biological target: T1, Dihydrofolate reductase (DHFR) (Homo sapiens, UniProt P00374); assay: Dihydrofolate reductase (DHFR) inhibitor assay (Sigma-Aldrich DHFR assay kit); format: biochemical
T1 construct: purchased Sigma-Aldrich
T1 sequence (P00374 1-187): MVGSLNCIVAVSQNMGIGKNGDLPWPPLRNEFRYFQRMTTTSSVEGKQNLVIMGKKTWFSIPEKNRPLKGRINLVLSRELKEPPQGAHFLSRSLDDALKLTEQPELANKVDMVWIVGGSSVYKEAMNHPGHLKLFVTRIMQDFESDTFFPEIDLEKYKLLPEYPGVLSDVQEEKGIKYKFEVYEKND
Description: According to the supplier protocol, the activity of DHFR reductase was measured at […], every 15 seconds for 2.5 minutes, with the Biochrom Anthos 2010 microplate reader (Biochrom Ltd., Cambourne, Cambridge, UK). The enzymatic activity was calculated by the following formula: […]

Compound	Solubility in Oil (40° C.) (Lipid solubility in oil; Canola Oil)	Solubility in Oil (40° C.) (Lipid solubility in oil; Olive Oil)	Solubility in Oil (40° C.) (Lipid solubility in oil; Sunflower Oil)	IC50 (MCF-7 cells) [µM]	Dihydrofolate reductase (DHFR) activity ([1]; inhibitor 5 mM [sic]) [Unit/mgP]	Dihydrofolate reductase (DHFR) activity ([1]; inhibitor 5 mM [sic], % of no inhibitor) [%]	Dihydrofolate reductase (DHFR) activity ([1]; inhibitor 50 mM [sic]) [Unit/mgP]	Dihydrofolate reductase (DHFR) activity ([1]; inhibitor 50 mM [sic], % of no inhibitor) [%]	Dihydrofolate reductase (DHFR) activity ([1]; inhibitor 500 mM [sic]) [Unit/mgP]	Dihydrofolate reductase (DHFR) activity ([1]; inhibitor 500 mM [sic], % of no inhibitor) [%]
CN(Cc1cnc2nc(N)nc(N)c2n1)c1ccc(C(=O)N[C@@H](CCC(=O)O)C(=O)O)cc1 [MTX, (2S)-2-[(4-{[(2,4-diaminopteridin-6-yl)methyl](methyl)amino}phenyl)formamido]pentanedioic acid, reference compound]	less than 0.1 mg/100 ml	less than 0.1 mg/100 ml	less than 0.1 mg/100 ml	3270						
CC(C)CCC[C@@H](C)[C@H]1CC[C@H]2[C@@H]3CC=C4C[C@@H](OC(=O)NCCCCNCCCNC(=O)[C@H](CCC(=O)O)NC(=O)c5ccc(N(C)Cc6cnc7nc(N)nc(N)c7n6)cc5)CC[C@]4(C)[C@H]3CC[C@]12C [Embodied compound, (4S)-4-{[3-({4-[({[(1R,3aS,3bS,7S,9aR,9bS,11aR)-9a,11a-dimethyl-1-[(2R)-6-methylheptan-2-yl]-1H,2H,3H,3aH,3bH,4H,6H,7H,8H,9H,9aH,9bH,10H,11H,11aH-cyclopenta[a]phenanthren-7-yl]oxy}carbonyl)amino]butyl}amino)propyl]carbamoyl}-4-[(4-{[(2,4-diaminopteridin-6-yl)methyl](methyl)amino}phenyl)formamido]butanoic acid]	81.3 mg/100 ml	48.1 mg/100 ml	103.6 mg/100 ml	60	1.261	8.41	0.561	3.74	0.561	3.74
